Experimental data from US20260363243A1 (priority 2022, published 2026).

Test system: cucumber downy mildew
Assay: Activity in vivo for inhibiting cucumber downy mildew (potting method, greenhouse)
Details: for efficacy compared with dimethomorph and cyazofamid / efficacy compared with oxathiapiprolin / bactericidal activity: in words
[1] = 0.078 mg/L, re-screening, Table 2
[2] = 0.312 mg/L, re-screening, Table 2
[3] = 1.25 mg/L, re-screening, Table 2

Description: The test and investigation method refers to a SOP-SC-1098 cucumber downy mildew potting method in the fungicide section of Standard operation Specification for testing biological Activity of pesticides written by Kang Zhuo and Gu Baogen.

Structure (SMILES) | Control effect (1.25 mg/L, Table 1) | Control effect (5 mg/L, Table 1) | Control effect (20 mg/L, Table 1) | also measured
CO/C=C/C(=O)N1CCC(c2nc(C3=NOC(c4c(F)cccc4F)C3)cs2)CC1 (stereo not shown) [Compound I-1] | A (90%≤A≤100%) | A (90%≤A≤100%) | A (90%≤A≤100%) | –
CO/C=C(\F)C(=O)N1CCC(c2nc(C3=NOC(c4c(F)cccc4F)C3)cs2)CC1 (stereo not shown) [Compound I-2] | B (75%≤B<90%) | B (75%≤B<90%) | A (90%≤A≤100%) | –
CO/C=C(\Cl)C(=O)N1CCC(c2nc(C3=NOC(c4c(F)cccc4F)C3)cs2)CC1 (stereo not shown) [Compound I-3] | A (90%≤A≤100%) | A (90%≤A≤100%) | A (90%≤A≤100%) | –
CO/C=C(\Br)C(=O)N1CCC(c2nc(C3=NOC(c4c(F)cccc4F)C3)cs2)CC1 (stereo not shown) [Compound I-4] | B (75%≤B<90%) | A (90%≤A≤100%) | A (90%≤A≤100%) | –
CO/C=C(\I)C(=O)N1CCC(c2nc(C3=NOC(c4c(F)cccc4F)C3)cs2)CC1 (stereo not shown) [Compound I-5] | C (60%≤C<75%) | B (75%≤B<90%) | B (75%≤B<90%) | –
CO/C=C(\C#N)C(=O)N1CCC(c2nc(C3=NOC(c4c(F)cccc4F)C3)cs2)CC1 (stereo not shown) [Compound I-6] | – | – | B (75%≤B<90%) | –
CO/C=C(\C)C(=O)N1CCC(c2nc(C3=NOC(c4c(F)cccc4F)C3)cs2)CC1 (stereo not shown) [Compound I-7] | – | B (75%≤B<90%) | A (90%≤A≤100%) | –
CC/C(=C\OC)C(=O)N1CCC(c2nc(C3=NOC(c4c(F)cccc4F)C3)cs2)CC1 (stereo not shown) [Compound I-8] | A (90%≤A≤100%) | A (90%≤A≤100%) | A (90%≤A≤100%) | –
CCC/C(=C\OC)C(=O)N1CCC(c2nc(C3=NOC(c4c(F)cccc4F)C3)cs2)CC1 (stereo not shown) [Compound I-9] | A (90%≤A≤100%) | A (90%≤A≤100%) | A (90%≤A≤100%) | –
CO/C=C(/C(=O)N1CCC(c2nc(C3=NOC(c4c(F)cccc4F)C3)cs2)CC1)C(C)C (stereo not shown) [Compound I-10] | A (90%≤A≤100%) | A (90%≤A≤100%) | A (90%≤A≤100%) | –
CO/C=C(/C(=O)N1CCC(c2nc(C3=NOC(c4c(F)cccc4F)C3)cs2)CC1)c1ccccc1C (stereo not shown) [Compound I-11] | – | – | C (60%≤C<75%) | –
CO/C=C(/C(=O)N1CCC(c2nc(C3=NOC(c4c(F)cccc4F)C3)cs2)CC1)c1ccccc1 (stereo not shown) [Compound I-12] | – | D (45%≤D<60%) | B (75%≤B<90%) | –
CO/C=C(/C(=O)N1CCC(c2nc(C3=NOC(c4c(F)cccc4F)C3)cs2)CC1)c1ccc(C)cc1 (stereo not shown) [Compound I-13] | – | B (75%≤B<90%) | A (90%≤A≤100%) | –
CO/C=C(/C(=O)N1CCC(c2nc(C3=NOC(c4c(F)cccc4F)C3)cs2)CC1)c1cc(C)ccc1C (stereo not shown) [Compound I-14] | A (90%≤A≤100%) | A (90%≤A≤100%) | A (90%≤A≤100%) | –
CO/C=C(/C(=O)N1CCC(c2nc(C3=NOC(c4c(F)cccc4F)C3)cs2)CC1)c1cc(Cl)ccc1Cl (stereo not shown) [Compound I-15] | – | C (60%≤C<75%) | C (60%≤C<75%) | –
C=CC(=O)N1CCC(c2nc(C3=NOC(c4c(F)cccc4F)C3)cs2)CC1 (stereo not shown) [Compound I-16] | D (45%≤D<60%) | C (60%≤C<75%) | B (75%≤B<90%) | –
CCO/C=C/C(=O)N1CCC(c2nc(C3=NOC(c4c(F)cccc4F)C3)cs2)CC1 (stereo not shown) [Compound I-17] | A (90%≤A≤100%) | A (90%≤A≤100%) | A (90%≤A≤100%) | –
CO/N=C(/C(=O)N1CCC(c2nc(C3=NOC(c4c(F)cccc4F)C3)cs2)CC1)c1ccccc1 (stereo not shown) [Compound I-18] | – | – | D (45%≤D<60%) | –
CO/N=C(/C(=O)N1CCC(c2nc(C3=NOC(c4c(F)cccc4F)C3)cs2)CC1)c1ccccc1C (stereo not shown) [Compound I-19] | A (90%≤A≤100%) | A (90%≤A≤100%) | A (90%≤A≤100%) | Control effect [1]: B (75%≤B<90%); Control effect [2]: A (90%≤A≤100%); Control effect [3]: A (90%≤A≤100%)
CO/N=C(/C(=O)N1CCC(c2nc(C3=NOC(c4c(F)cccc4F)C3)cs2)CC1)c1cccc(C)c1 (stereo not shown) [Compound I-20] | – | – | D (45%≤D<60%) | –
CO/N=C(/C(=O)N1CCC(c2nc(C3=NOC(c4c(F)cccc4F)C3)cs2)CC1)c1ccc(C)cc1C (stereo not shown) [Compound I-21] | – | – | D (45%≤D<60%) | –

Structure (SMILES) | Control effect (1.25 mg/L, Table 1) | Control effect (5 mg/L, Table 1) | Control effect (20 mg/L, Table 1) | also measured
CO/N=C/C(=O)N1CCC(c2nc(C3=NOC(c4c(F)cccc4F)C3)cs2)CC1 (stereo not shown) [Compound I-22] | A (90%≤A≤100%) | A (90%≤A≤100%) | A (90%≤A≤100%) | Control effect [1]: B (75%≤B<90%); Control effect [2]: B (75%≤B<90%); Control effect [3]: A (90%≤A≤100%)
CO/N=C(\C)C(=O)N1CCC(c2nc(C3=NOC(c4c(F)cccc4F)C3)cs2)CC1 (stereo not shown) [Compound I-23] | D (45%≤D<60%) | B (75%≤B<90%) | B (75%≤B<90%) | –
CC/C(=N\OC)C(=O)N1CCC(c2nc(C3=NOC(c4c(F)cccc4F)C3)cs2)CC1 (stereo not shown) [Compound I-24] | C (60%≤C<75%) | B (75%≤B<90%) | A (90%≤A≤100%) | –
CO/N=C(/C(=O)N1CCC(c2nc(C3=NOC(c4c(F)cccc4F)C3)cs2)CC1)c1cc(C)ccc1C (stereo not shown) [Compound I-25] | C (60%≤C<75%) | B (75%≤B<90%) | A (90%≤A≤100%) | –
CCO/N=C(/C(=O)N1CCC(c2nc(C3=NOC(c4c(F)cccc4F)C3)cs2)CC1)c1cc(C)ccc1C (stereo not shown) [Compound I-26] | D (45%≤D<60%) | D (45%≤D<60%) | C (60%≤C<75%) | –
CCO/N=C(\C#N)C(=O)N1CCC(c2nc(C3=NOC(c4c(F)cccc4F)C3)cs2)CC1 (stereo not shown) [Compound I-28] | – | B (75%≤B<90%) | A (90%≤A≤100%) | –
CCO/N=C/C(=O)N1CCC(c2nc(C3=NOC(c4c(F)cccc4F)C3)cs2)CC1 (stereo not shown) [Compound I-29] | A (90%≤A≤100%) | A (90%≤A≤100%) | A (90%≤A≤100%) | –
CCO/C(C)=C/C(=O)N1CCC(c2nc(C3=NOC(c4c(F)cccc4F)C3)cs2)CC1 (stereo not shown) [Compound I-30] | B (75%≤B<90%) | B (75%≤B<90%) | A (90%≤A≤100%) | –
COC(CC(=O)N1CCC(c2nc(C3=NOC(c4c(F)cccc4F)C3)cs2)CC1)OC (stereo not shown) [II-1] | A (90%≤A≤100%) | A (90%≤A≤100%) | A (90%≤A≤100%) | –
CCOC(CC(=O)N1CCC(c2nc(C3=NOC(c4c(F)cccc4F)C3)cs2)CC1)OCC (stereo not shown) [II-2] | A (90%≤A≤100%) | A (90%≤A≤100%) | A (90%≤A≤100%) | Control effect [1]: B (75%≤B<90%); Control effect [2]: A (90%≤A≤100%); Control effect [3]: A (90%≤A≤100%)
CCCOC(CC(=O)N1CCC(c2nc(C3=NOC(c4c(F)cccc4F)C3)cs2)CC1)OCC (stereo not shown) [II-4] | A (90%≤A≤100%) | A (90%≤A≤100%) | A (90%≤A≤100%) | efficacy compared with dimethomorph and cyazofamid (0.078 mg/L): superior to that of dimethomorph and cyazofamid; efficacy compared with oxathiapiprolin (0.078 mg/L): equivalent to that of oxathiapiprolin at the same concentration; Control effect (0.078 mg/L, re-screening): ≥ 90%; Control effect [1]: A (90%≤A≤100%); Control effect [2]: A (90%≤A≤100%); Control effect [3]: A (90%≤A≤100%); bactericidal activity (re-screening): excellent bactericidal activity
CCOC(CC(=O)N1CCC(c2nc(C3=NOC(c4c(F)cccc4F)C3)cs2)CC1)OCc1ccccc1 (stereo not shown) [II-5] | – | D (45%≤D<60%) | A (90%≤A≤100%) | –
COC(OC)C(C)C(=O)N1CCC(c2nc(C3=NOC(c4c(F)cccc4F)C3)cs2)CC1 (stereo not shown) [II-6] | – | D (45%≤D<60%) | C (60%≤C<75%) | –
CCC(C(=O)N1CCC(c2nc(C3=NOC(c4c(F)cccc4F)C3)cs2)CC1)C(OC)OC (stereo not shown) [II-7] | – | D (45%≤D<60%) | B (75%≤B<90%) | –
CCCC(C(=O)N1CCC(c2nc(C3=NOC(c4c(F)cccc4F)C3)cs2)CC1)C(OC)OC (stereo not shown) [II-8] | D (45%≤D<60%) | C (60%≤C<75%) | A (90%≤A≤100%) | –
CCCCC(C(=O)N1CCC(c2nc(C3=NOC(c4c(F)cccc4F)C3)cs2)CC1)C(OC)OC (stereo not shown) [II-9] | D (45%≤D<60%) | B (75%≤B<90%) | A (90%≤A≤100%) | –
COC(OC)C(C(=O)N1CCC(c2nc(C3=NOC(c4c(F)cccc4F)C3)cs2)CC1)c1ccccc1 (stereo not shown) [II-10] | – | – | D (45%≤D<60%) | –
CC1(CC(=O)N2CCC(c3nc(C4=NOC(c5c(F)cccc5F)C4)cs3)CC2)OCCO1 (stereo not shown) [II-11] | D (45%≤D<60%) | C (60%≤C<75%) | A (90%≤A≤100%) | –
CC1COC(C)(CC(=O)N2CCC(c3nc(C4=NOC(c5c(F)cccc5F)C4)cs3)CC2)O1 (stereo not shown) [II-12] | – | D (45%≤D<60%) | A (90%≤A≤100%) | –
CCOC(CC(=O)N1CCC(c2nc(C3=NOC(c4c(F)cccc4F)C3)cs2)CC1)OCC(F)(F)F (stereo not shown) [II-19] | A (90%≤A≤100%) | A (90%≤A≤100%) | A (90%≤A≤100%) | Control effect (0.005 mg/L, re-screening, Table 2): B (75%≤B<90%); Control effect (0.02 mg/L, re-screening, Table 2): A (90%≤A≤100%); efficacy compared with dimethomorph and cyazofamid (0.078 mg/L): superior to that of dimethomorph and cyazofamid; efficacy compared with oxathiapiprolin (0.078 mg/L): equivalent to that of oxathiapiprolin at the same concentration; Control effect (0.078 mg/L, re-screening): ≥ 90%; Control effect [1]: A (90%≤A≤100%); Control effect [2]: A (90%≤A≤100%); Control effect (0.625 mg/L, Table 3): A (90% ≤ A ≤ 100%); Control effect [3]: A (90%≤A≤100%); Control effect (2.5 mg/L, Table 3): A (90% ≤ A ≤ 100%); Control effect (10 mg/L, Table 3): A (90% ≤ A ≤ 100%); bactericidal activity (re-screening): excellent bactericidal activity
